The source of these data is patent US20140135310A1, “SULPHONAMIDE DERIVATIVES OF ALICYCLIC AMINES FOR THE TREATMENT OF CENTRAL NERVOUS SYSTEM DISEASES” (Adamed Sp. z o.o., priority 2011, published 2014).

The target of assay [1] is T1, 5-HT6 receptor (Homo sapiens, UniProt P50406).
T1 construct: purchased PerkinElmer
Description: Radioligand binding assay, serotoninergic 5-HT6 receptors.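 For 5-HT6 [%]: test compound at 1 µM.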 The settings on record: for Ki: read-out: Inhibition constants Ki, 5-HT6. A digest of the protocol: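 Values are Ki from Cheng–Prusoff, taking IC50 from Hill nonlinear regression of competition curves and KD from a Scatchard plot. Specific binding was total minus binding with excess unlabelled ligand. Radioligand displacement was detected by scintillation counting, and data were also reported as percent of control specific binding.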

For assay [2], the system named is α1 adrenergic receptors (rat cerebral cortex). Nature of the assay: Radioligand binding assay, adrenergic α1 receptors. The settings on record: test compound 1×10^−6 M. A digest of the protocol:
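Values derive from radioligand displacement, with non-specific binding defined by excess cold ligand and detection by scintillation. Hill-fit IC50s were converted to Ki via Cheng-Prusoff using Scatchard-derived Kd; percent inhibition of control specific binding also reported.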

For assay [3], the target named is T2, M3 muscarinic receptors (Homo sapiens, UniProt P20309).
T2 construct: expressed in transfected cells; host or cells: CHO cells
Nature of the assay: Radioligand binding assay, muscarinic M3 receptors. The settings on record: test compound 1×10^−6 M. The text has this: (§1) The specific ligand binding to the receptors is defined as the difference between the total binding and the non-specific binding determined in the presence of the excess of unlabelled ligand.
(§2) The results are expressed as a percent of control specific binding ((measured specific binding/control specific binding)×100) and as a percent inhibition of control specific binding (100−((measured specific binding/control specific binding)×100)) obtained in the presence of the test compounds. The specific ligand binding to the receptors is defined as the difference between the total binding and the nonspecific binding determined in the presence of an excess of unlabelled ligand. Scintillation counting was the method of detection of ligand binding. The IC50 values (concentration causing a half-maximal inhibition of control specific binding) were determined by non-linear regression analysis of the competition curves generated with mean replicate values using Hill equation curve fitting (Y=D+[(A−D)/(1+(C/C50)nH)], where Y=specific binding, D=minimum specific binding, A=maximum specific binding, C=compound concentration, C50=IC50, and nH=slope factor). This analysis was performed using a software developed at Cerep (Hill software) and validated by comparison with data generated by the commercial software SigmaPlot® 4.0 for Windows® (© 1997 by SPSS Inc.). The inhibition constants (Ki) were calculated using the Cheng Prusoff equation (Ki=IC50/(1+(L/KD)), where L=concentration of radioligand in the assay, and KD=affinity of the radioligand for the receptor). A scatchard plot was used to determine the Kd.
Experimental conditions for tests are given in Table 10, and results of tests for representative compounds are given in Table 11.

Assay [4] has as its target T3, serotonin transporter (SERT) (Homo sapiens, UniProt P31645).
T3 construct: expressed in transfected cells; host or cells: CHO cells
Description: Radioligand binding assay, serotonin transporter (SERT). To be noted: for Ki: read-out: Inhibition constants Ki for SERT, SERT. In a few lines: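 Radioligand competition binding with scintillation detection; specific binding is total minus binding under excess unlabelled ligand. Reported as % of control specific binding or % inhibition; IC50 from Hill-equation non-linear regression of competition curves, and Ki via Cheng-Prusoff using radioligand concentration and Scatchard-derived KD.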

The target in assay [5] is dopaminergic receptors D2 (Homo sapiens, UniProt P14416). Description: Radioligand binding assay, dopaminergic D2 receptors. The settings on record: for Ki: read-out: Inhibition constants Ki for D2 receptors, D2. In a few lines: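 Radioligand displacement was measured by scintillation counting, with non-specific binding defined in the presence of excess unlabelled ligand. Competition curves were fitted to the Hill equation to give IC50, and Ki was derived by the Cheng–Prusoff equation.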

For assay [6], the target named is T4, 5-HT2C receptor (Homo sapiens, UniProt P28335).
T4 construct: expressed in transfected cells; host or cells: HEK-293 cells
T4 sequence (P28335 33-458): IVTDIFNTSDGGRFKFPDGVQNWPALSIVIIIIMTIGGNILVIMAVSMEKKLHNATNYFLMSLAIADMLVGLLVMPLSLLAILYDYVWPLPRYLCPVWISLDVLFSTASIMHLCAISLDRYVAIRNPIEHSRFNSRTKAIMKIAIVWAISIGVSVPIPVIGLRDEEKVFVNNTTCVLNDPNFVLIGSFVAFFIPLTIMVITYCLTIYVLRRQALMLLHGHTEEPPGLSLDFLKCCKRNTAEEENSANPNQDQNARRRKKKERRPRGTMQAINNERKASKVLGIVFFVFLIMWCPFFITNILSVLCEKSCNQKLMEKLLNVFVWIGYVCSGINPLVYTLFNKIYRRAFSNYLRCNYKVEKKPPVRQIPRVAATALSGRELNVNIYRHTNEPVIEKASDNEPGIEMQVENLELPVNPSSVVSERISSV
Nature of the assay: Radioligand binding assay, serotoninergic 5-HT2C receptors. To be noted: test compound 1×10^−6 M.
Description: as §1, §2
Experimental conditions for tests are given in Table 4, and results of tests for representative compounds of the invention are given in Table 5a and 5b (receptors 5-HT1A, 5-HT2A, 5-HT6 and 5-HT7) and in Table 6 (receptors 5-HT2C).

For assay [7], the target named is T5, receptors D4.4 (Homo sapiens, UniProt P21917).
T5 sequence (P21917 1-419): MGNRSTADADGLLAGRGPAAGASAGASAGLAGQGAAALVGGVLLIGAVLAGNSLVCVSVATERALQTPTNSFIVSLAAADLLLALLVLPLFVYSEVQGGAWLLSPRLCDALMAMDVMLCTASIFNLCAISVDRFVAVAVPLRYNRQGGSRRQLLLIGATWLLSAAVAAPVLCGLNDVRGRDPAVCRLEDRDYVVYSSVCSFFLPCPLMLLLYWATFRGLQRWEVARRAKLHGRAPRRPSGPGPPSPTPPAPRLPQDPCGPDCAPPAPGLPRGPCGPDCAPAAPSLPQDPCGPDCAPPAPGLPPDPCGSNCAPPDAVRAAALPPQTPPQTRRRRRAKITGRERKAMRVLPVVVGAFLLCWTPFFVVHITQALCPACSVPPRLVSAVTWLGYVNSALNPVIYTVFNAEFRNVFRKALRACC
Nature of the assay: Radioligand binding assay, dopaminergic D4 (D4.4) receptors. The settings on record: test compound 1×10^−6 M.
Description: as §1, §2
Experimental conditions for tests are given in Table 1, the results of tests for representative compounds are given in Tables 2a and 2b (receptors D2 and D3) and in Table 3 (receptors D4).

Setting [8] is: binding assay result in %, Table 5a.
Where [9] appears, read: binding assay, test compound 1×10^−6 M.

T3 sequence (P31645 whole entry): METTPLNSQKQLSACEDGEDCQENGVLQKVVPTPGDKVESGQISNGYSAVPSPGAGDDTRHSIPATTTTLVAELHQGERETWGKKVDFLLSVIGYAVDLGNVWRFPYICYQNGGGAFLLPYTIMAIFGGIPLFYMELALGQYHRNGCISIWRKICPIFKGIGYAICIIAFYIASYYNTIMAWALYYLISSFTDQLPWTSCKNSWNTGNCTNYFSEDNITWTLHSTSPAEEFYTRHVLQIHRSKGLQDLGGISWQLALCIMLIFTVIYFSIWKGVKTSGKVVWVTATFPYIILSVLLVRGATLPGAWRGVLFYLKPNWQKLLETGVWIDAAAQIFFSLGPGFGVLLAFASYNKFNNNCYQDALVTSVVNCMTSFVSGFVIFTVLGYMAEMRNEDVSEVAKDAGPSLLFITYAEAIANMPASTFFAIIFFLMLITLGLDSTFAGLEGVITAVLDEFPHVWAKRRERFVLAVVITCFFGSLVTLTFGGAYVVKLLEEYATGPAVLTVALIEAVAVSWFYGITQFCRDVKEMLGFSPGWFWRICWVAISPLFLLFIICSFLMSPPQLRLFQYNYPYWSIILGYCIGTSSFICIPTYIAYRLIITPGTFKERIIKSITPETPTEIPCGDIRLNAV
T1 sequence (P50406 whole entry): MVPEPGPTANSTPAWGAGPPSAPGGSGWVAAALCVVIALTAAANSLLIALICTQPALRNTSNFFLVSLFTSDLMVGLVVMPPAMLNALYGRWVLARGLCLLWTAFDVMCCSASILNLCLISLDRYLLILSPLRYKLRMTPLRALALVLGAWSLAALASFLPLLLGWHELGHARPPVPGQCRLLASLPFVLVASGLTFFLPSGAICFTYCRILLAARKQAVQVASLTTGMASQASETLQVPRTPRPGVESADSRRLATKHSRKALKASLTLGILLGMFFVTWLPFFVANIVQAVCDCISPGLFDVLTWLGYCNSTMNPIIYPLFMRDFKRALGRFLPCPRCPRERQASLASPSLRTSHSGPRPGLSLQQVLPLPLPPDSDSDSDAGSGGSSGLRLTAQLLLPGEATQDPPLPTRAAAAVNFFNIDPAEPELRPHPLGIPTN
T2 sequence (P20309 whole entry): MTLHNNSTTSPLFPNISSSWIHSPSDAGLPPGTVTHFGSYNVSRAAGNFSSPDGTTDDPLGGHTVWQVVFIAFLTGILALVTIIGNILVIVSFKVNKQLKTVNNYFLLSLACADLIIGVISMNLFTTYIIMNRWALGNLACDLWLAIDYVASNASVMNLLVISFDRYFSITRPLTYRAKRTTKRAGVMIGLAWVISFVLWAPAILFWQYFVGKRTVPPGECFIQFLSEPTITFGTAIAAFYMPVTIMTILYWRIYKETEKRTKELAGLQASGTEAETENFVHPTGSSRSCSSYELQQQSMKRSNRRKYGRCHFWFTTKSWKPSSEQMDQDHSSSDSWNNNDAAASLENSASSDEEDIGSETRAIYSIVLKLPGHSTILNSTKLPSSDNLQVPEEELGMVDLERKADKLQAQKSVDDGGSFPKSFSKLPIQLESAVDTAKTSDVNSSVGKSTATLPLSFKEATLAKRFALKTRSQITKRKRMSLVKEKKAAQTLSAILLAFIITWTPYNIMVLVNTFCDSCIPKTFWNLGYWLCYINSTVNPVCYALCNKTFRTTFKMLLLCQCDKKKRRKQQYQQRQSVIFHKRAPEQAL
Sequence of dopaminergic receptors D2 (P14416 whole entry): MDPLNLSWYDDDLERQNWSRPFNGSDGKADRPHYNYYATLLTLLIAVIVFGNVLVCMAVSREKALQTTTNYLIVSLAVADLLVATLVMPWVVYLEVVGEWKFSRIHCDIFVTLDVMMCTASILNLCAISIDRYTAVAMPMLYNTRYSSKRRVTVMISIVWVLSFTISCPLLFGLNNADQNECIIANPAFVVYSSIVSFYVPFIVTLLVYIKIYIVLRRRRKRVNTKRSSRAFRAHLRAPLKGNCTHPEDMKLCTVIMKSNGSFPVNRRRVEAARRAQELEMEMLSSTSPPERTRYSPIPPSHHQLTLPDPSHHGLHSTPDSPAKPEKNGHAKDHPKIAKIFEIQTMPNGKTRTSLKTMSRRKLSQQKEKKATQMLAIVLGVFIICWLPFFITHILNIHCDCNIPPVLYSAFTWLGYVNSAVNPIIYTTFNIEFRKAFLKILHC

Broadly, the inhibition is the change of the read-out against control, counted positive when it falls. Usually Ki stands for a dissociation constant, usually derived from enzyme kinetics or from competition with a known ligand. On to `O=S(=O)(NC1CCN(CCCc2c[nH]c3ccc(F)cc23)C1)c1ccc(Cl)cc1` (stereo not shown) [Compound 77, 4-Chloro-N-[1-[3-(5-fluoro-1H-indol-3-yl)propyl]pyrrolidin-3-yl]-benzenesulphonamide], for which the inhibition at 1 µM was 95% in assay [1] (setting [8]); 17% in assay [3]; 104% in assay [4] (setting [9]); 93% in assay [5] (setting [9]); 77% in assay [6]; 78% in assay [7]. Besides, the Ki is 39 nM in assay [1] and 0.5 nM in assay [4]. In addition, in assay [2], the “α1 [%]” value was 29%.
On to `O=S(=O)(N[C@@H]1CCN(CCCc2noc3cc(F)ccc23)C1)c1ccc2cc(Cl)ccc2c1` [Compound 200, 6-Chloro-N-[(3R)-1-[3-(6-fluoro-1,2-benzoxazol-3-yl)propyl]pyrrolidin-3-yl]naphthalene-2-sulphonamide], for which the inhibition at 1 µM in assay [1] (setting [8]) stood at 99%; in assay [3] it was 3%; in assay [4] (setting [9]), 74%; in assay [5] (setting [9]), 100%; in assay [6], 77%; in assay [7], 49%. Moreover, the Ki worked out at 10 nM in assay [1] and 0.1 nM in assay [5]. In addition, in assay [2], the “α1 [%]” value was found to be 85%.
As for `O=S(=O)(N[C@H]1CCN(CCCc2noc3cc(F)ccc23)C1)c1cc2ccc(Cl)cc2s1` [Compound 199, 6-Chloro-N-[(3S)-1-[3-(6-fluoro-1,2-benzoxazol-3-yl)propyl]pyrrolidin-3-yl]benzothiophene-2-sulphonamide], the inhibition at 1 µM came to 91% in assay [1] (setting [8]); 38% in assay [3]; 39% in assay [4] (setting [9]); 96% in assay [5] (setting [9]); 83% in assay [6]; 69% in assay [7]. In addition, the Ki in assay [1] is 99 nM; in assay [5], 4.4 nM. Moreover, the “α1 [%]” value in assay [2] came to 66%.
With `O=S(=O)(NC1CN(CCOc2cccc3c2OCCO3)C1)c1ccc(Cl)cc1` [Compound 92, 4-Chloro-N-[1-[2-(2,3-dihydro-1,4-benzodioxan-8-yloxy)ethyl]azetidin-3-yl]benzene-sulphonamide], the “5-HT6 [%]” value in assay [1] (setting [8]) is given as 23%. Besides, the “α1 [%]” value in assay [2] is given as 47%. In assay [3], the “M3 [%]” value amounted to 4%. The “SERT [%]” value in assay [4] (setting [9]) was 10%. Besides, the “D2 [%]” value in assay [5] (setting [9]) is listed as 49%. Also, the “5-HT2C [%]” value in assay [6] is 52%. Also, the “D4.4 [%]” value in assay [7] is 35%.
Take `O=S(=O)(NCC1CCN(CCOc2cccc3c2OCCO3)C1)c1ccc2c(c1)CCO2` (stereo not shown) [Compound 306, N-[[1-[2-(2,3-Dihydro-1,4-benzodioxin-5-yloxy)ethyl]pyrrolidin-3-yl]-methyl]-2,3-dihydrobenzofuran-5-sulphonamide]: the inhibition at 1 µM in assay [1] (setting [8]) was 45%; in assay [3], 12%; in assay [4] (setting [9]), 90%; in assay [5] (setting [9]) it was 51%; in assay [6], 36%; in assay [7], 33%. Further, the “α1 [%]” value in assay [2] is on record as 90%.
Turning to `COc1cccc(S(=O)(=O)NCC2CN(CCCc3noc4cc(F)ccc34)C2)c1` [Compound 143, N-[[1-[3-(6-Fluoro-1,2-benzoxazol-3-yl)propyl]azetidin-3-yl]methyl]-3-methoxy-benzenesulphonamide], the inhibition at 1 µM is 78% in assay [1] (setting [8]); -4% in assay [3]; 6% in assay [4] (setting [9]); 80% in assay [5] (setting [9]); 68% in assay [6]; 80% in assay [7]. Further, the “α1 [%]” value in assay [2] came to 97%.
With `Cc1c(S(=O)(=O)N[C@H]2CCN(CCCc3noc4cc(F)ccc34)C2)sc2ccc(F)cc12` [Compound 203, 5-Fluoro-N-[(3S)-1-[3-(6-fluoro-1,2-benzoxazol-3-yl)propyl]pyrrolidin-3-yl]-3-methyl-benzothiophene-2-sulphonamide], the inhibition at 1 µM in assay [1] (setting [8]) was 100%; in assay [3] it was 12%; in assay [4] (setting [9]), 73%; in assay [5] (setting [9]), 101%; in assay [6] it was 90%; in assay [7] it was 78%. Also, the Ki in assay [1] turned out to be 12 nM; in assay [5] it was 0.9 nM. For the same compound, the “α1 [%]” value in assay [2] was determined as 91%.
As for `O=S(=O)(NC1CCN(CCCc2noc3cc(F)ccc23)C1)c1ccc2ccccc2c1` (stereo not shown) [Compound 21, N-[1-[3-(6-Fluoro-1,2-benzoxazol-3-yl)propyl]pyrrolidin-3-yl]naphthalene-2-sulphonamide], the inhibition at 1 µM in assay [1] (setting [8]) is 95%; in assay [3], -11%; in assay [4] (setting [9]), 59%; in assay [5] (setting [9]) it was 100%; in assay [6] it was 71%; in assay [7], 83%. The “α1 [%]” value in assay [2] is 95%.
Turning to `O=S(=O)(NC1CCN(CCCc2c[nH]c3ccc(F)cc23)C1)c1ccc(F)cc1` (stereo not shown) [Compound 75, 4-Fluoro-N-[1-[3-(5-fluoro-1H-indol-3-yl)propyl]pyrrolidin-3-yl]benzene-sulphonamide], the inhibition at 1 µM in assay [1] (setting [8]) stood at 94%; in assay [3], 17%; in assay [4] (setting [9]) it was 103%; in assay [5] (setting [9]), 91%; in assay [6], 83%; in assay [7], 76%. The values for the Ki in assay [1] and in assay [4] were 34 nM and 1.5 nM, respectively. Moreover, in assay [2], the “α1 [%]” value turned out to be 45%.
Regarding `COc1ccc2cc(S(=O)(=O)N[C@@H]3CCN(CCCc4noc5cc(F)ccc45)C3)ccc2c1` [Compound 230, N-[(3R)-1-[3-(6-Fluoro-1,2-benzoxazol-3-yl)propyl]pyrrolidin-3-yl]-6-methoxy-naphthalene-2-sulphonamide], the inhibition at 1 µM was found to be 96% in assay [1] (setting [8]); 15% in assay [3]; 75% in assay [4] (setting [9]); 99% in assay [5] (setting [9]); 91% in assay [6]; 88% in assay [7]. The Ki in assay [1] came to 15 nM; in assay [5], 1.1 nM. Moreover, the “α1 [%]” value in assay [2] turned out to be 83%.
